Here are results for one compound from patent publication US20130012473A1, “COMBINED USE OF PHOSPHOLIPID AND SULFATE GROUPS-CARRYING POLYSACCHARIDES FOR INHIBITING METASTATIC SPREAD” (KTB TUMORFORSCHUNGSGESELLSCHAFT MBH, priority 2010, published 2013).

The subject of assay [1] is VLA-4 adhesion of B16.F10 cells to VCAM-1. The assay is described as follows: Parallel plate flow chamber assay, cell adhesion to immobilized VCAM-1. In kind it is cell-based, mouse. As to the method:
Flow chamber assay: The interaction of B16.F10 cells with VCAM-1 Fc chimera under physiological flow conditions was analyzed on glass slides coated with VCAM-1 Fc chimera in a parallel plate flow chamber, as described in detail in our previous investigations (Fritzsche, J. et al., Thromb. Haemost. 100:1166-1175 (2008)).
Example 2: Impact of LysoPC treatment of B16.F10 cells on adhesion receptor activity in vitro. In order to investigate the concentration and time dependent effects of LysoPC on the receptor mediated cell binding ability, VLA-4 adhesion of B16.F10 cells to a support-fixed VCAM-1 layer was investigated (FIG. 2A). […] The LysoPC effects on adhesion became amplified by repeated LysoPC feeding.

The subject of the next assay is P-selectin ligands. The assay is described as follows: Flow cytometry, binding of soluble P-selectin Fc chimera. The format is cell-based, mouse. The settings on record: 450 μM LysoPC treated cells vs control cells. The protocol:
FIG. 3: Impact of exogenous LysoPC on the surface expression of VLA-4 or VCAM-1- and P-selectin-ligands. (A) Surface expression of VLA-4 on B16.F10 cells treated with 450 μM LysoPC for 13 days was controlled by flow cytometric analysis. […] FACS histograms (A-C) show one representative of three independent experiments. In all experiments cells only incubated with the respective FITC-conjugated detection antibody served as control.
For orientation: Flow cytometry measures light scatter and fluorescence of single cells or particles in a stream.

Assay [2] concerns B16.F10 ELN melanoma cells. The assay is described as follows: In vivo bioluminescence imaging of metastatic spread. Also noted: species or system mouse. The settings on record: measured once weekly. As to the method: Metastatic spread was also measured once weekly by in vivo bioluminescence as described previously (Jantscheff, P. et al., Prostate 69:1151-1163 (2009)). Overlays of in vivo images and mouse photographs allowed to localize the metastatic lesions in lung and at the injection sites (D: black arrows) even in late images (D: day 14).

In the case of `CCCCCCCCCCCCCCCCC(=O)OC[C@@H](O)COP(=O)([O-])OCC[N+](C)(C)C` [LysoPC], the “cell binding to support-fixed VCAM-1” value is recorded as “no effect in reducing the VLA-4 binding” in assay [1] (repeated addition of 300 μM LysoPC (13 days)), “did not mediate significant binding decrease” in assay [1] (single incubation with 300 μM LysoPC for 72 h), “significantly impaired the cell binding” in assay [1] (single incubation with 450 μM LysoPC for 72 h before VLA-4 activation) and “complete binding inhibition” in assay [1] (treated six times with 450 μM LysoPC (13 days)). Further, the “expression of P-selectin ligands (P-selectin-Fc chimera binding)” value in the assay with P-selectin ligands is given as “remained unchanged”. The “quantification of metastatic spread by in vivo bioluminescence, differences LysoPC-treated vs untreated” value in assay [2] is reported as “could not confirm”.
